Patent EP4595972A1, “PEPTIDE FOR TREATING OR PREVENTING 4R TAUOPATHY” (GemVax & KAEL Co., Ltd., priority 2022, dated 2024)

Experiments:
[1] = tested on: mouse Tau (mTau); assay: Tau immunoblot of brain lysate, soluble fraction, mTau; assay type: in vivo; conditions: LMTM 15 mg/kg oral vs. vehicle, decrease (in parentheses)
Procedure: • (1) After completing administration, the mice of TauP301L-BiFC mouse model were anesthetized, followed by preparing heart laparotomy. • (2) Saline was introduced to the heart of each mouse in the TauP301L-BiFC mouse model, followed by removing vivo blood using a perfusion pump machine. • (3) After removing the blood, the brain was extracted and weighed. • (4) 1 mL RIPA buffer (w/protease/phosphatase inhibitor cocktail) was added to the extracted brain, followed by homogenization. • (5) After moving the homogenized brain lysate to an ep-tube, it was subjected to incubation in 4°C orbital shaker for 2 hours. • (6) After centrifugation at 4°C with a speed of 13,000 rpm for 20 minutes, the supernatant (soluble fraction) was collected in a new ep-tube and stored at -80°C • (7) In order to prepare an immunoblot sample, the concentration of a soluble fraction sample was quantified by Bradford protein quantification method. • (8) To each sample, RIPA buffer and 4X SDS Laemmli sample buffer (w/ 2.5% β-mercaptoethanol for reducing condition) were added to reach a final concentration of 2 mg/mL. • (9) The sample was boiled at 97°C for 5 minutes. […]

[2] = tested on: TauP301L-BiFC mice; assay: Novel object recognition test (cognitive ability) in 4R TauP301L-BiFC mouse model; assay type: in vivo; conditions: LMTM 15 mg/kg; mice administered 62 times; FIG. 3
Procedure: • (1) On day 1, adaptation training to a new open space was conducted. After an adaptation time for two similar objects added to the corresponding open space on day 2, an experiment to evaluate a cognitive ability to the newly replaced object on day 3 was conducted. • (2) 1 hour before the experiment, a time for adaptation of experimental mice in a space wherein the behavior experiment is conducted, should be ensured. • (3) On day 1, after exposing the experimental mouse to an open space in a size of 40 x 40 cm, the mouse was subjected to behavior assessment for 10 minutes. • (4) On day 2, two similar objects were placed in the same open space, followed by enabling the mouse to learn the objects for 10 minutes. • (5) On day 3, one among the two objects learned in the same open space was replaced with a new object. At this time, a cognitive ability to the replaced object was evaluated.
Results of evaluating the cognitive ability improvement efficacy through a novel object recognition test in the 4R TauP301L-BiFC mouse model were shown in FIG. 3. The experiment was conducted using the TauP301L-BiFC mouse model including 7- to 12-month-old mice administered with the drug for 5 months. […] The obtained results were analyzed through bidirectional ANOVA using Sidak's multiple comparisons test (*p<0.05; ***p<0.0001).

## CN(C)c1ccc2c(c1)Sc1cc(N(C)C)ccc1N2.CS(=O)(=O)O.CS(=O)(=O)O [LMTM]
[1]; ***p<0.001
  Soluble fraction, Phosphorylated tau, mTau (pS199): (34%)** *
[1]; **p<0.01
  Soluble fraction, Total tau, mTau: (24%)**
[1]; *p<0.05
  Soluble fraction, Phosphorylated tau, mTau (pS396): (27%)*
[2]
  cognitive ability for the new object (novel object recognition test), in words: significantly improved
